Assay results reported in patent US10830683B2, “Method for measuring coagulation of blood samples using viscoelastic tests (VET)” (CA Casyso GmbH, priority 2012, dated 2020).

Test system: citrated whole blood
Test: ROTEM (NATEM) of recalcified citrated whole blood with added bead suspension or supernatant
Type: cell-based, human
Settings: cell-coated beads preincubated with TNFα 10 ng/ml for 12-16 h; compared with unstimulated cells
Procedure: To seed endothelial cells on microbeads, an approximate cell count of 400 OEC or HUVEC per bead was mixed with Cytodex 3 (collagen-coated) dextran microcarrier beads (GE Healthcare Bio-Sciences AB, Uppsala, Sweden) in 1 ml of EGM-2 medium. Beads and cells were incubated at 37° C. and 5% CO2 for 4 h and shaken gently every 20 min. After transferring the suspension to a 25-cm^2 tissue culture flask (Greiner Bio-One, Linz, Austria), microbeads were optionally incubated with TNFα (Sigma Aldrich, Vienna) at a final concentration of 10 ng/ml for 12-16 h at 37° C. and 5% CO2 in 4 ml of EGM-2 to simulate an inflammatory situation. To assess the influence of collagen, data from bare, collagen-coated Cytodex 3 were compared with uncoated Cytodex 1 (GE Healthcare Bio-Sciences AB, Uppsala, Sweden) beads in an identical setting.
Coated Beads and overnight-conditioned cell culture supernatant were gently taken up with a 10 ml serological pipette and transferred to a 15 ml Falcon tube. Once beads descended, the supernatant was carefully transferred to 1.5 ml tubes and centrifuged at 1,500×g for 20 minutes. […]
The following ROTEM parameters were calculated from the signal and included in the statistical analysis: Clotting time (CT, sec), latency until the clot reaches a firmness of 2 mm; measure for initial thrombin and fibrin formation. […]

Substance: TNFα
- Clotting time (CT) after prior activation of cells: significant further shortening of CT
